Assay results from ChEMBL document CHEMBL5223099, “Covalent cannabinoid receptor ligands - structural insight and selectivity challenges” (RSC Med Chem, 2022).
One block for each molecule: values may come before it.

What was measured:
Cannabinoid receptor 1 [1] = biological target: Cannabinoid receptor 1 (Rattus norvegicus, UniProt P20272); test: Antagonist activity at rat CB1R expressed in CHO cells assessed as inhibition of forskolin stimulated cyclic AMP production; assay type: cell-based
Cannabinoid receptor 2 [2] = biological target: T1, Cannabinoid receptor 2 (Homo sapiens, UniProt P34972); test: Antagonist activity at human CB2R assessed as beta arrestin-2 recruitment by measuring inhibition constant
Cannabinoid receptor 1 [3] = biological target: T2, Cannabinoid receptor 1 (Homo sapiens, UniProt P21554); test: Antagonist activity at human CB1R assessed as beta arrestin-2 recruitment by measuring inhibition constant
Cannabinoid receptor 2 [4] = biological target: T1, Cannabinoid receptor 2; test: Binding affinity to wild type human CB2R expressed in HEK293 cells assessed as inhibition constant; assay type: cell-based
Cannabinoid receptor 1 [5] = biological target: T2, Cannabinoid receptor 1; test: Binding affinity to CB1R (unknown origin) assessed as inhibition constant; settings: filed as antagonist
Cannabinoid receptor 1 [6] = biological target: T2, Cannabinoid receptor 1; test: Displacement of [3H]- CP55940 from human CB1R expressed in HEK293F cells assessed as inhibition constant incubated for 1 hr by scintillation counter analysis; assay type: cell-based; settings: filed as antagonist

T2 sequence (P21554 whole entry): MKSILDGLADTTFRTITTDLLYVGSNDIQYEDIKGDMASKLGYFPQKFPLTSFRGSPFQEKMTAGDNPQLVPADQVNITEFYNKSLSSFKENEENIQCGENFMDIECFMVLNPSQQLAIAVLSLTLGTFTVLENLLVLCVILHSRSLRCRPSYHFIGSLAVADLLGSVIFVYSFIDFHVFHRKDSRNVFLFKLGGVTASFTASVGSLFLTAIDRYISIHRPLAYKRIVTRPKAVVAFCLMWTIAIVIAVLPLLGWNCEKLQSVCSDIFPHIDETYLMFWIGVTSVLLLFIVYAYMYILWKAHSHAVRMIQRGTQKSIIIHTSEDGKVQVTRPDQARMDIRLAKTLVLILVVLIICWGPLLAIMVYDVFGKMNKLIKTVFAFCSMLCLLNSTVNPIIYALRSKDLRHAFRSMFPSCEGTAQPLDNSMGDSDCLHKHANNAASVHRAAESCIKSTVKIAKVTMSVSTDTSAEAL
T1 sequence (P34972 whole entry): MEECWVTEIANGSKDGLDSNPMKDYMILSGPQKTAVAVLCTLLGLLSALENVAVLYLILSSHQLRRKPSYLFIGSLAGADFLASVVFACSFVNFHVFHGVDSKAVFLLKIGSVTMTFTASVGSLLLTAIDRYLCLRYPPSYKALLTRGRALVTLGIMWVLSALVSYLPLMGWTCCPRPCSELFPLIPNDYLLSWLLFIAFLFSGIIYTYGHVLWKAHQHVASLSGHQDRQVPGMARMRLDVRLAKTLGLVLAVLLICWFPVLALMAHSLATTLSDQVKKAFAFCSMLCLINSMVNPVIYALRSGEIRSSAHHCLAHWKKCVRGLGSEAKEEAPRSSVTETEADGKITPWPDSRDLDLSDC
Cannabinoid receptor 1 (Rattus norvegicus, UniProt P20272), sequence (P20272 whole entry): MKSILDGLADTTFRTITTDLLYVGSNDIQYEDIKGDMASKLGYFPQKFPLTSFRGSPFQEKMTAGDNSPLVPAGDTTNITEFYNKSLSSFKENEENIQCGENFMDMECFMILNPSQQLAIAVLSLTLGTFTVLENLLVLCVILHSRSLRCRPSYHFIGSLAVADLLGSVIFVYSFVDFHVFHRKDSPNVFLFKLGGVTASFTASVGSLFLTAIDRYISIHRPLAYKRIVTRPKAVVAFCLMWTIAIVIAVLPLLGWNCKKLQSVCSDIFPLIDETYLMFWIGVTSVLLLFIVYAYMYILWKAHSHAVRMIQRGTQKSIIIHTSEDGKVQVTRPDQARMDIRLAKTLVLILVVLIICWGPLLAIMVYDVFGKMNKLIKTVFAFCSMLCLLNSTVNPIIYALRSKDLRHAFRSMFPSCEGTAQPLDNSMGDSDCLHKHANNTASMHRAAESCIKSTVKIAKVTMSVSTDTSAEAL

SMILES: CCCCCCC(C)(C)c1cc(OC)c([C@H]2C=C(CO)[C@H]3C[C@@H]2C3(C)C)c(OC)c1
Ki (Cannabinoid receptor 1 [1]): > 10000 nM

SMILES: Cc1c(C(=O)NC23CC4CC(CC(C4)C2)C3)nn(CCCCCO)c1-c1ccccc1
Ki (Cannabinoid receptor 2 [2]): 0.075 nM
Ki (Cannabinoid receptor 1 [3]): 13 nM

SMILES: CCCCCn1nc(C(=O)NC23CC4CC(CC(C4)C2)C3)c(C)c1-c1ccccc1
Ki (Cannabinoid receptor 2 [4]): 0.63 nM

K (Cannabinoid receptor 1 [5]): 5.76 nM
SMILES: Cc1c(C(=O)NC23CC4CC(CC(C4)C2)C3)nn(CCCCSC#N)c1-c1ccccc1

K (Cannabinoid receptor 1 [6]): 5.1 nM
SMILES: Cc1c(C(=O)NN2CCCCC2)nn(-c2ccc(Cl)cc2Cl)c1-c1ccc(C#CCCO[N+](=O)[O-])cc1
